In PubChem BioAssay AID248 (DTP/NCI, 2004):
Values joined by “and” are separate entries in the source; they are usually repeats but may differ in a detail not shown here. Equal values may be shown once. Inconclusive results and toxic doses are left out. No stated cut-off is given here; in the data, active means T/C of 150% or more; inactive means T/C below 125%.

System: L1210 leukemia ip in BDF1 mice, survival T/C
Assay: NCI In Vivo Anticancer Drug Screen. Data for tumor model L1210 Leukemia (intraperitoneal) in B6D2F1 (BDF1) mice
Conditions: endpoint: mean survival time, higher = longer survival
Outline: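 Transplanted-tumor mice were given test agent; controls received vehicle only. Survival readings from the two groups were divided (treated over control).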

[1] = dose: 100.0 mg/kg/injection, schedule: Q01DX001 (ip), vehicle: saline
[2] = dose: 200.0 mg/kg/injection, schedule: Q01DX001 (ip), vehicle: saline

Measured: T/C

CC(C)OC(=O)C(C)OC(=O)C1CCCCC1 (configuration not stated)
inactive: [1] 98 % of control | [2] 97 % of control | dose: 400.0 mg/kg/injection, schedule: Q01DX001 (ip), vehicle: saline 93 % of control

C[N+](C)(C)CCO
inactive: dose: 50.0 mg/kg/injection, schedule: Q04DX003 (ip), vehicle: none 99 % of control and 105 % of control | dose: 100.0 mg/kg/injection, schedule: Q04DX003 (ip), vehicle: none 97 % of control and 102 % of control | dose: 100.0 mg/kg/injection, schedule: Q04DX003 (ip), vehicle: saline 95 % of control | dose: 200.0 mg/kg/injection, schedule: Q04DX003 (ip), vehicle: none 96 % of control and 99 % of control | dose: 200.0 mg/kg/injection, schedule: Q04DX003 (ip), vehicle: saline 96 % of control | dose: 400.0 mg/kg/injection, schedule: Q04DX003 (ip), vehicle: saline 106 % of control

Cc1onc(-c2ccccc2Cl)c1C(=O)NC(N)=S
inactive: dose: 100.0 mg/kg/injection, schedule: Q01DX009 (ip), vehicle: saline 103 % of control | dose: 200.0 mg/kg/injection, schedule: Q01DX009 (ip), vehicle: saline 101 % of control | dose: 400.0 mg/kg/injection, schedule: Q01DX009 (ip), vehicle: saline 104 % of control

O=C(Nc1ccc(F)cc1)OCCOc1ccc([N+](=O)[O-])cc1
inactive: dose: 100.0 mg/kg/injection, schedule: Q01DX009 (ip), vehicle: Klucel (hydroxypropylcellulose) (HPC) 96 % of control | dose: 200.0 mg/kg/injection, schedule: Q01DX009 (ip), vehicle: Klucel (hydroxypropylcellulose) (HPC) 107 % of control | dose: 400.0 mg/kg/injection, schedule: Q01DX009 (ip), vehicle: Klucel (hydroxypropylcellulose) (HPC) 93 % of control

CC[P+](c1ccccc1)(c1ccccc1)c1ccccc1
inactive: dose: 0.62 mg/kg/injection, schedule: Q01DX009 (ip), vehicle: saline 100 % of control | dose: 0.62 mg/kg/injection, schedule: Q04DX003 (ip), vehicle: saline 100 % of control | dose: 1.25 mg/kg/injection, schedule: Q01DX009 (ip), vehicle: saline 100 % of control | dose: 1.25 mg/kg/injection, schedule: Q04DX003 (ip), vehicle: saline 97 % of control | dose: 2.5 mg/kg/injection, schedule: Q01DX009 (ip), vehicle: saline 100 % of control | dose: 2.5 mg/kg/injection, schedule: Q04DX003 (ip), vehicle: saline 97 % of control

CCCCc1cn(S(=O)(=O)c2ccc(C)cc2)nn1
inactive: dose: 100.0 mg/kg/injection, schedule: Q04DX002 (ip), vehicle: saline with Tween-80 106 % of control | dose: 200.0 mg/kg/injection, schedule: Q04DX002 (ip), vehicle: saline with Tween-80 100 % of control | dose: 400.0 mg/kg/injection, schedule: Q04DX002 (ip), vehicle: saline with Tween-80 106 % of control

O=NN(C(=O)NC1CCCCC1Cl)C1CCCCC1Cl (configuration not stated)
inactive: dose: 8.0 mg/kg/injection, schedule: Q01DX001 (ip), vehicle: carboxymethylcellulose (CMC) 102 % of control | dose: 12.0 mg/kg/injection, schedule: Q01DX001 (ip), vehicle: carboxymethylcellulose (CMC) 106 % of control | dose: 18.0 mg/kg/injection, schedule: Q01DX001 (ip), vehicle: carboxymethylcellulose (CMC) 106 % of control | dose: 26.0 mg/kg/injection, schedule: Q01DX001 (ip), vehicle: carboxymethylcellulose (CMC) 106 % of control | dose: 40.0 mg/kg/injection, schedule: Q01DX001 (ip), vehicle: carboxymethylcellulose (CMC) 107 % of control | dose: 60.0 mg/kg/injection, schedule: Q01DX001 (ip), vehicle: carboxymethylcellulose (CMC) 98 % of control | dose: 93.0 mg/kg/injection, schedule: Q01DX001 (ip), vehicle: carboxymethylcellulose (CMC) 104 % of control | dose: 187.0 mg/kg/injection, schedule: Q01DX001 (ip), vehicle: carboxymethylcellulose (CMC) 102 % of control | dose: 375.0 mg/kg/injection, schedule: Q01DX001 (ip), vehicle: carboxymethylcellulose (CMC) 96 % of control

Cc1ccc(S(=O)(=O)Nc2ccccc2)cc1
inactive: dose: 100.0 mg/kg/injection, schedule: Q04DX002 (ip), vehicle: Klucel (hydroxypropylcellulose) (HPC) 100 % of control | dose: 200.0 mg/kg/injection, schedule: Q04DX002 (ip), vehicle: Klucel (hydroxypropylcellulose) (HPC) 94 % of control | dose: 400.0 mg/kg/injection, schedule: Q04DX002 (ip), vehicle: Klucel (hydroxypropylcellulose) (HPC) 91 % of control

O=C(O)CCC(c1ccccc1)(c1ccccc1)c1ccccc1
inactive: dose: 100.0 mg/kg/injection, schedule: Q01DX001 (ip), vehicle: carboxymethylcellulose (CMC) 95 % of control | dose: 200.0 mg/kg/injection, schedule: Q01DX001 (ip), vehicle: carboxymethylcellulose (CMC) 95 % of control | dose: 400.0 mg/kg/injection, schedule: Q01DX001 (ip), vehicle: carboxymethylcellulose (CMC) 101 % of control

CCOC(=O)C1C2CCCCC21 (configuration not stated)
inactive: [1] 102 % of control | [2] 96 % of control

C[n+]1ccc(N2CCCCC2)c2ccc(Cl)cc21
inactive: dose: 2.0 mg/kg/injection, schedule: Q01DX001 (ip), vehicle: saline 111 % of control
